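Cultured in 96-well plates, cells were exposed to test compound for 48 hours across five concentrations. GI50 = concentration required for 50% inhibition of growth.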 The source made the active and inactive calls. Rule as the data show it: active = GI50 up to about 1.1 µM and inactive = higher.
Assays:
Assay in all cases: growth of human tumour cells (NCI), 48 h
A498 = tested on: A498
A549 = tested on: A549
CAKI-1 = tested on: CAKI-1
EKVX = tested on: EKVX
HCT-15 = tested on: HCT-15
HOP-92 = tested on: HOP-92
K562 = tested on: K562
Malme-3M = tested on: Malme-3M
NCI-H460 = tested on: NCI-H460
OVCAR-5 = tested on: OVCAR-5
OVCAR-8 = tested on: OVCAR-8
SF-268 = tested on: SF-268
SF-539 = tested on: SF-539
SK-MEL-28 = tested on: SK-MEL-28
SK-MEL-2 = tested on: SK-MEL-2
SK-MEL-5 = tested on: SK-MEL-5
SN12C = tested on: SN12C
SNB-19 = tested on: SNB-19
SW-620 = tested on: SW-620
UO-31 = tested on: UO-31

Q: Which GI50 (A498) does the source give for COc1ccc(O)c(C#N)c1C#N.COc1ccc(OC)c(C#N)c1C#N here?
A: > 100 µM (inactive)

Q: What about the GI50 (A549) of the same compound?
A: > 100 µM (inactive)

Q: And the GI50 (CAKI-1)?
A: > 100 µM (inactive)

Q: And the GI50 (EKVX)?
A: 23.7 µM (inactive)

Q: What about the GI50 (HCT-15) of the same compound?
A: > 100 µM

Q: And the GI50 (HOP-92)?
A: > 100 µM (inactive)

Q: And the GI50 (K562)?
A: > 100 µM (inactive)

Q: And the GI50 (Malme-3M)?
A: > 100 µM (inactive)

Q: And the GI50 (NCI-H460)?
A: > 100 µM (inactive)

Q: What about the GI50 (OVCAR-5) of the same compound?
A: > 100 µM (inactive)

Q: What about the GI50 (OVCAR-8) of the same compound?
A: > 100 µM (inactive)

Q: And the GI50 (SF-268)?
A: > 100 µM (inactive)

Q: What about the GI50 (SF-539) of the same compound?
A: > 100 µM (inactive)

Q: What about the GI50 (SK-MEL-28) of the same compound?
A: > 100 µM (inactive)

Q: And the GI50 (SK-MEL-2)?
A: > 100 µM (inactive)

Q: And the GI50 (SK-MEL-5)?
A: > 100 µM (inactive)

Q: What about the GI50 (SN12C) of the same compound?
A: > 100 µM (inactive)

Q: And the GI50 (SNB-19)?
A: > 100 µM (inactive)

Q: What about the GI50 (SW-620) of the same compound?
A: > 100 µM (inactive)

Q: And the GI50 (UO-31)?
A: > 100 µM (inactive)

Q: For O=C(O)c1ccccc1/N=C/c1ccc(N(CCCl)CCCl)cc1, which GI50 (A498) is on record?
A: > 40.5 µM (inactive)

Q: And the GI50 (A549)?
A: > 100 µM (inactive)

Q: And the GI50 (CAKI-1)?
A: 9.75 µM (inactive)

Q: And the GI50 (EKVX)?
A: 64.1 µM (inactive)

Q: And the GI50 (HCT-15)?
A: > 100 µM

Q: What about the GI50 (HOP-92) of the same compound?
A: > 100 µM (inactive)

Q: And the GI50 (K562)?
A: > 100 µM (inactive)

Q: And the GI50 (Malme-3M)?
A: > 100 µM (inactive)

Q: What about the GI50 (NCI-H460) of the same compound?
A: 31.5 µM (inactive)

Q: What about the GI50 (OVCAR-5) of the same compound?
A: > 100 µM (inactive)

Q: What about the GI50 (OVCAR-8) of the same compound?
A: > 100 µM (inactive)

Q: And the GI50 (SF-268)?
A: > 72.4 µM (inactive)

Q: What about the GI50 (SF-539) of the same compound?
A: > 66.5 µM (inactive)

Q: What about the GI50 (SK-MEL-28) of the same compound?
A: > 100 µM (inactive)

Q: What about the GI50 (SK-MEL-2) of the same compound?
A: > 100 µM (inactive)

Q: What about the GI50 (SK-MEL-5) of the same compound?
A: > 100 µM (inactive)

Q: And the GI50 (SN12C)?
A: > 85.5 µM (inactive)

Q: And the GI50 (SNB-19)?
A: > 100 µM (inactive)

Q: What about the GI50 (SW-620) of the same compound?
A: > 100 µM (inactive)

Q: What about the GI50 (UO-31) of the same compound?
A: > 65.2 µM (inactive)

Q: What does the source list for CCOC(=O)Cn1c(=O)ccn(COCCO)c1=O?
A: GI50 (A498): > 100 µM (inactive); GI50 (A549): > 100 µM (inactive); GI50 (CAKI-1): > 100 µM (inactive); GI50 (EKVX): > 100 µM (inactive); GI50 (HCT-15): > 100 µM; GI50 (HOP-92): > 100 µM (inactive); GI50 (K562): > 100 µM (inactive); GI50 (Malme-3M): > 100 µM (inactive); GI50 (NCI-H460): > 100 µM (inactive); GI50 (OVCAR-5): > 100 µM (inactive); GI50 (OVCAR-8): > 100 µM (inactive); GI50 (SF-268): > 100 µM (inactive); GI50 (SF-539): > 100 µM (inactive); GI50 (SK-MEL-28): > 100 µM (inactive); GI50 (SK-MEL-2): > 100 µM (inactive); GI50 (SK-MEL-5): > 100 µM (inactive); GI50 (SN12C): > 100 µM (inactive); GI50 (SNB-19): > 100 µM (inactive); GI50 (SW-620): > 100 µM (inactive); GI50 (UO-31): > 100 µM (inactive)

Q: Which GI50 (A498) does the source give for CO/N=C1\CC(NC(=O)C(F)(F)F)c2ccsc21 (stereo unspecified) here?
A: > 100 µM (inactive)

Q: And the GI50 (A549)?
A: > 100 µM (inactive)

Q: What about the GI50 (CAKI-1) of the same compound?
A: > 100 µM (inactive)

Q: And the GI50 (EKVX)?
A: > 100 µM (inactive)

Q: And the GI50 (HCT-15)?
A: > 100 µM

Q: And the GI50 (HOP-92)?
A: > 100 µM (inactive)

Q: What about the GI50 (K562) of the same compound?
A: > 100 µM (inactive)

Q: What about the GI50 (Malme-3M) of the same compound?
A: > 100 µM (inactive)

Q: And the GI50 (NCI-H460)?
A: > 100 µM (inactive)

Q: And the GI50 (OVCAR-5)?
A: > 100 µM (inactive)

Q: What about the GI50 (OVCAR-8) of the same compound?
A: > 100 µM (inactive)

Q: What about the GI50 (SF-268) of the same compound?
A: > 100 µM (inactive)

Q: What about the GI50 (SF-539) of the same compound?
A: > 100 µM (inactive)

Q: What about the GI50 (SK-MEL-28) of the same compound?
A: > 100 µM (inactive)

Q: And the GI50 (SK-MEL-2)?
A: > 100 µM (inactive)

Q: And the GI50 (SK-MEL-5)?
A: > 100 µM (inactive)

Q: What about the GI50 (SN12C) of the same compound?
A: > 100 µM (inactive)

Q: And the GI50 (SW-620)?
A: > 100 µM (inactive)

Q: And the GI50 (UO-31)?
A: > 100 µM (inactive)

Q: What does the source list for CC(C)=CC1C(C(=O)O)C1(C)C (stereo unspecified) [CHRYSANTHEMIC ACID]?
A: GI50 (A498): 24 µM (inactive); GI50 (A549): > 750 µM (inactive); GI50 (CAKI-1): 643 µM (inactive); GI50 (EKVX): > 750 µM (inactive); GI50 (HCT-15): > 750 µM; GI50 (HOP-92): 520 µM (inactive); GI50 (K562): > 750 µM (inactive); GI50 (Malme-3M): 746 µM (inactive); GI50 (NCI-H460): > 750 µM (inactive); GI50 (OVCAR-5): > 750 µM (inactive); GI50 (OVCAR-8): > 750 µM (inactive); GI50 (SF-268): > 750 µM (inactive); GI50 (SF-539): > 750 µM (inactive); GI50 (SK-MEL-28): > 750 µM (inactive); GI50 (SK-MEL-2): > 750 µM (inactive); GI50 (SK-MEL-5): > 750 µM (inactive); GI50 (SN12C): > 724 µM (inactive); GI50 (SNB-19): > 750 µM (inactive); GI50 (SW-620): > 750 µM (inactive); GI50 (UO-31): > 750 µM (inactive)

Q: For Brc1ccc2[nH]c3c(C4=NCCC4)nccc3c2c1, which GI50 (A549) is on record?
A: 16.3 µM (inactive)

Q: What about the GI50 (CAKI-1) of the same compound?
A: 19.6 µM (inactive)

Q: And the GI50 (EKVX)?
A: 13 µM (inactive)

Q: And the GI50 (HCT-15)?
A: 17 µM

Q: What about the GI50 (HOP-92) of the same compound?
A: > 26.9 µM (inactive)

Q: And the GI50 (K562)?
A: 11.3 µM (inactive)

Q: And the GI50 (Malme-3M)?
A: 1.91 µM (inactive)

Q: What about the GI50 (NCI-H460) of the same compound?
A: 9.95 µM (inactive)

Q: And the GI50 (OVCAR-5)?
A: 6.11 µM (inactive)

Q: And the GI50 (OVCAR-8)?
A: 13.5 µM (inactive)

Q: And the GI50 (SF-268)?
A: 16.1 µM (inactive)

Q: What about the GI50 (SF-539) of the same compound?
A: 9.53 µM (inactive)

Q: What about the GI50 (SK-MEL-28) of the same compound?
A: 16.4 µM (inactive)

Q: And the GI50 (SK-MEL-2)?
A: 13.9 µM (inactive)

Q: What about the GI50 (SK-MEL-5) of the same compound?
A: 8.47 µM (inactive)

Q: And the GI50 (SN12C)?
A: 19.1 µM (inactive)

Q: And the GI50 (SNB-19)?
A: 21.7 µM (inactive)

Q: What about the GI50 (SW-620) of the same compound?
A: 21.3 µM (inactive)

Q: What about the GI50 (UO-31) of the same compound?
A: 14.8 µM (inactive)

Q: c1ccc2sc(SCN(C3CCCCC3)C3CCCCC3)nc2c1 was tested. Which GI50 (A498) did it give?
A: > 100 µM (inactive)

Q: And the GI50 (A549)?
A: > 100 µM (inactive)

Q: And the GI50 (CAKI-1)?
A: > 100 µM (inactive)

Q: And the GI50 (EKVX)?
A: > 100 µM (inactive)

Q: What about the GI50 (HCT-15) of the same compound?
A: > 100 µM

Q: What about the GI50 (HOP-92) of the same compound?
A: > 100 µM (inactive)

Q: What about the GI50 (K562) of the same compound?
A: > 100 µM (inactive)

Q: And the GI50 (Malme-3M)?
A: > 100 µM (inactive)

Q: What about the GI50 (NCI-H460) of the same compound?
A: > 100 µM (inactive)

Q: What about the GI50 (OVCAR-5) of the same compound?
A: > 100 µM (inactive)

Q: What about the GI50 (OVCAR-8) of the same compound?
A: > 100 µM (inactive)

Q: And the GI50 (SF-268)?
A: > 100 µM (inactive)

Q: What about the GI50 (SK-MEL-28) of the same compound?
A: > 100 µM (inactive)

Q: What about the GI50 (SK-MEL-2) of the same compound?
A: > 100 µM (inactive)

Q: And the GI50 (SK-MEL-5)?
A: > 100 µM (inactive)

Q: And the GI50 (SNB-19)?
A: > 100 µM (inactive)

Q: What about the GI50 (SW-620) of the same compound?
A: > 100 µM (inactive)

Q: And the GI50 (UO-31)?
A: > 100 µM (inactive)
